Assay results reported in US20100029710A1, “COMPOUNDS HAVING BOTH ANGIOTENSIN II RECEPTOR ANTAGONISM AND PPARy ACTIVATING ACTIVITIES” (Pfizer Products Inc., priority 2006, published 2010).

What was measured:
[1] = target: T1, human PPARγ LBD bound to Gal4 DBD (Homo sapiens, UniProt P37231); assay: PPARγ transfection luciferase reporter assay in HepG2 cells; assay type: cell-based; settings: for Emax: HepG2, 24 h, compared to full agonist response (standard TZD full agonist), read-out: PPARγ % activation; for EC50: HepG2, 24 hours exposure
T1 construct: expressed in transfected cells; host or cells: HepG2
T1 sequence (P37231 238-503 limits assumed): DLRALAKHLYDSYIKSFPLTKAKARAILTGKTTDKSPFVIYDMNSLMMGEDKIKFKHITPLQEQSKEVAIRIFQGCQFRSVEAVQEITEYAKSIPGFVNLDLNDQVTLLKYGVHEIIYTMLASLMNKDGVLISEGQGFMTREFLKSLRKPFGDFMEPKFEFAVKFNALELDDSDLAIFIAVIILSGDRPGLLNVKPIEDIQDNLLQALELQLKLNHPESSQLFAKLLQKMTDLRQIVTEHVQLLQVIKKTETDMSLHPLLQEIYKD
Protocol: PPARγ agonist activity may be determined by a cell line transiently transfected with PPARγ bound to a DNA binding domain that controls luciferase expression. The degree of receptor agonism is measured by the amount of luciferase activity after compound treatment. The ratio of treated cells over vehicle control cells provides a measure of fold activation and allows an EC50 (shown in tables I and II as […] EC50) and % activation to be calculated
A human hepatocellular carcinoma cell line (HepG2) was subcultured into dishes and transiently transfected with DNA to allow expression of human PPARγ LBD bound to Gal4 DBD. Luciferase reporter gene and β-galactosidase control genes were co-transfected to enable activity to be measured. After 24 hours, cells were exposed to compounds in the concentration range of 0.1 nM-100 μM and left for a further 24 hours. Luciferase activity is determined by luminometry and PPARγ activation is expressed as a ratio of luciferase activity to β-galactosidase activity to account for transfection efficiency. Potency is described by an EC50 defined as the concentration of compound producing receptor activation equivalent to 50% of the maximum for that compound (shown in Table I as transfection EC50). The maximum fold activation is a measure of efficacy and is expressed as a percentage of a reference full agonist run in the same assay. Efficacy is described by % activation of receptor relative to a standard thiazolidinedione (TZD) full agonist.

[2] = target: T2, Human recombinant AT1 receptor (Homo sapiens, UniProt P30556); assay: AT1 receptor radioligand binding (flashplate); settings: 125I Sar1,Ile8-Angiotensin II radioligand
T2 construct: purchased
T2 sequence (P30556 1-359): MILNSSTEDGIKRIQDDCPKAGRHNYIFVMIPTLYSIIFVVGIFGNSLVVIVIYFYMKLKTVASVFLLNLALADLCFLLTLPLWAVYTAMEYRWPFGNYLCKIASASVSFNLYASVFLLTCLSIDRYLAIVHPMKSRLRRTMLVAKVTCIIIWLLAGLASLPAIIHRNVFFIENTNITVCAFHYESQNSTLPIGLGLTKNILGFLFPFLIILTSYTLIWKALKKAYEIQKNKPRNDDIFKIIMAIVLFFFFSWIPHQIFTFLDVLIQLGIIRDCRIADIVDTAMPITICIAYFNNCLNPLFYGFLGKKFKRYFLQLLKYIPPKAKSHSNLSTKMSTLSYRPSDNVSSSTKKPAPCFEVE
Protocol: Angiotensin II receptor antagonist activity may be determined using commercially available flashplates coated with the AT1 or AT2 receptor which provide a rapid and high throughput means to evaluate compounds compared to traditional filtration based assays (Regina M. Van Der Hee et al., Journal of Biomolecular Screening 10(2); 2005; 118-126).
AT1 receptor affinity was determined in a radioligand binding format using commercially available flashplate technology. Human recombinant AT1 receptor were coated on the wells of a 96 well flashplate and test compounds were diluted and added to wells at a final concentration range of 50 μM to 1 μM. Total binding was determined in the absence of compound and non-specific binding in the presence of 10 μM cold Angiotensin II. ^125I labeled Sar^1, Ile^8-Angiotensin II was added to all wells at Kd concentration and left for 2 hours at room temperature to equilibrate. Plates were read on a TopCount (Perkin Elmer) and concentration-response curves constructed using commercial curve fitting software. The Ki was determined via interpolation and the use of the Cheng-Prussof equation.

| Emax [1] [%] | EC50 [1] [nM] | IC50 [2] [nM] | Compound |
| --- | --- | --- | --- |
| 34 | 45 | 6.5 | CCc1nc2c(C)cc(CCC(C)(O)C(C)(C)C)nc2n1[C@H]1CCc2cc(-c3ccccc3-c3nnn[nH]3)ccc21 (stereo partly drawn) [Example 68, 1-(3-((1S)-5-(2-(1H-tetrazol-5-yl)phenyl)-2,3-dihydro-1H-inden-1-yl)-2-ethyl-7-methyl-3H-imidazo[4,5-b]pyridin-5-yl)-3,4,4-trimethylpentan-3-ol] |
| 23 | 110 | 5.1 | CCc1nc2c(C)cc(Cn3nc(C)cc3C)nc2n1[C@H]1CCc2cc(-c3ccccc3-c3nnn[nH]3)ccc21 [Example 67, 3-((1S)-5-(2-(1H-tetrazol-5-yl)phenyl)-2,3-dihydro-1H-inden-1-yl)-5-((3,5-dimethyl-1H-pyrazol-1-yl)methyl)-2-ethyl-7-methyl-3H-imidazo[4,5-b]pyridine] |
| 21 | 95 | 1.9 | CCc1nc2c(C)cc(CC3CCCCC3O)nc2n1[C@H]1CCc2cc(-c3ccccc3-c3nnn[nH]3)ccc21 (single isomer, unassigned) [Example 64] |
| 36 | 130 | 2.1 | CCCc1nc2c(C)cc(CCC(C)(O)c3ccccc3)nc2n1[C@H]1CCc2cc(-c3ccccc3-c3nnn[nH]3)ccc21 (stereo partly drawn) [Example 51, 4-(3-((1S)-5-(2-(1H-tetrazol-5-yl)phenyl)-2,3-dihydro-1H-inden-1-yl)-7-methyl-2-propyl-3H-imidazo[4,5-b]pyridin-5-yl)-2-phenylbutan-2-ol] |
| 21 | 965 | 0.9 | CCCc1nc2c(C)cc(CC[C@H](C)O)nc2n1[C@H]1CCc2cc(-c3ccccc3-c3nnn[nH]3)ccc21 [Example 41, (S)-4-(3-((1S)-5-(2-(1H-tetrazol-5-yl)phenyl)-2,3-dihydro-1H-inden-1-yl)-7-methyl-2-propyl-3H-imidazo[4,5-b]pyridin-5-yl)butan-2-ol] |
| 38 | 475 | 1.1 | CCc1nc2c(C)cc(CCC(O)CC)nc2n1[C@H]1CCc2cc(-c3ccccc3-c3nnn[nH]3)ccc21 (stereo partly drawn) [Example 44, 1-(3-((1S)-5-(2-(1H-tetrazol-5-yl)phenyl)-2,3-dihydro-1H-inden-1-yl)-2-ethyl-7-methyl-3H-imidazo[4,5-b]pyridin-5-yl)pentan-3-ol] |
| 26 | 170 | 1.2 | CCc1nc2c(C)cc(CC[C@@H](O)CC)nc2n1[C@H]1CCc2cc(-c3ccccc3-c3nnn[nH]3)ccc21 [Example 46, (S)-1-(3-((1S)-5-(2-(1H-tetrazol-5-yl)phenyl)-2,3-dihydro-1H-inden-1-yl)-2-ethyl-7-methyl-3H-imidazo[4,5-b]pyridin-5-yl)pentan-3-ol] |
| 21 | 190 | 1.1 | CCc1nc2c(C)cc(CCCOC)nc2n1[C@H]1CCc2cc(-c3ccccc3-c3nnn[nH]3)ccc21 [Example 48, 3-((1S)-5-(2-(1H-tetrazol-5-yl)phenyl)-2,3-dihydro-1H-inden-1-yl)-2-ethyl-5-(3-methoxypropyl)-7-methyl-3H-imidazo[4,5-b]pyridine] |
| 22 | 245 | 2.3 | CCc1nc2c(C)cc(CC3CCCC3O)nc2n1[C@H]1CCc2cc(-c3ccccc3-c3nnn[nH]3)ccc21 (single isomer, unassigned) [Example 65] |

The remaining lines, values behind:

| Compound | Emax [1] [%] | EC50 [1] [nM] | IC50 [2] [nM] |
| --- | --- | --- | --- |
| C=CCC(O)Cc1cc(C)c2nc(CC)n([C@H]3CCc4cc(-c5ccccc5-c5nnn[nH]5)ccc43)c2n1 (stereo partly drawn) [Example 20, 1-(3-((1S)-5-(2-(1H-tetrazol-5-yl)phenyl)-2,3-dihydro-1H-inden-1-yl)-2-ethyl-7-methyl-3H-imidazo[4,5-b]pyridin-5-yl)pent-4-en-2-ol] | 31 | 70 | 5.7 |
| CCc1nc2c(C)cc(CC(O)C3CC3)nc2n1[C@H]1CCc2cc(-c3ccccc3-c3nnn[nH]3)ccc21 (stereo partly drawn) [Example 19, 2 (3-((1S)-5-(2-(1H-tetrazol-5-yl)phenyl)-2,3-dihydro-1H-inden-1-yl)-2-ethyl-7-methyl-3H-imidazo[4,5-b]pyridin-5-yl)-1-cyclopropylethanol] | 20 | 105 | 7.2 |
| CCc1nc2c(C)cc(CCc3ccccc3C)nc2n1[C@H]1CCc2cc(-c3ccccc3-c3nnn[nH]3)ccc21 [Example 28, ((1S)-5-(2-(1H-tetrazol-5-yl)phenyl)-2,3-dihydro-1H-inden-1-yl)-5-(2-methylphenethyl)-2-ethyl-7-methyl-3H-imidazo[4,5-b]pyridine] | 15 | 330 | 2.2 |
| CCc1nc2c(C)cc(CC(C)=O)nc2n1[C@H]1CCc2cc(-c3ccccc3-c3nnn[nH]3)ccc21 [Example 14, 1-(3-((1S)-5-(2-(1H-tetrazol-5-yl)phenyl)-2,3-dihydro-1H-inden-1-yl)-2-ethyl-7-methyl-3H-imidazo[4,5-b]pyridin-5-yl)propan-2-one] | 21 | 410 | 5 |
| CCc1nc2c(C)cc([C@H](O)c3ccccc3)nc2n1[C@H]1CCc2cc(-c3ccccc3-c3nnn[nH]3)ccc21 [Example 8b, (R)-(3-((1S)-5-(2-(1H-tetrazol-5-yl)phenyl)-2,3-dihydro-1H-inden-1-yl)-2-ethyl-7-methyl-3H-imidazo[4,5-b]pyridin-5-yl)(phenyl)methanol] | 25 | 100 | 1.5 |
| CCc1nc2c(C)cc(CCc3cc(C)ccc3C)nc2n1[C@H]1CCc2cc(-c3ccccc3-c3nnn[nH]3)ccc21 [Example 31, 3-((1S)-5-(2-(1H-tetrazol-5-yl)phenyl)-2,3-dihydro-1H-inden-1-yl)-5-(2,5-dimethylphenethyl)-2-ethyl-7-methyl-3H-imidazo[4,5-b]pyridine] | 63 | 45 | 6.9 |
| CCc1nc2c(C)cc(COC(C)(C)C)nc2n1[C@H]1CCc2cc(-c3ccccc3-c3nnn[nH]3)ccc21 [Example 5, 3-((1S)-5-(2-(1H-tetrazol-5-yl)phenyl)-2,3-dihydro-1H-inden-1-yl)-5-(tert-butoxymethyl)-2-ethyl-7-methyl-3H-imidazo[4,5-b]pyridine] | 48 | 290 | 2.9 |
| CCc1nc2c(C)cc(CC(C)O)nc2n1[C@H]1CCc2cc(-c3ccccc3-c3nnn[nH]3)ccc21 (mixture of isomers) [Example 15, 1-(3-((1S)-5-(2-(1H-tetrazol-5-yl)phenyl)-2,3-dihydro-1H-inden-1-yl)-2-ethyl-7-methyl-3H-imidazo[4,5-b]pyridin-5-yl)propan-2-ol] | 19 | 85 | 1.7 |
| CCc1nc2c(C)cc(COC(C)C)nc2n1[C@H]1CCc2cc(-c3ccccc3-c3nnn[nH]3)ccc21 [Example 4, 3-((1S)-5-(2-(1H-tetrazol-5-yl)phenyl)-2,3-dihydro-1H-inden-1-yl)-2-ethyl-5-(isopropoxymethyl)-7-methyl-3H-imidazo[4,5-b]pyridine] | 32 | 295 | 2.2 |
| CCc1nc2c(C)cc([C@@H](OC)C(C)C)nc2n1[C@H]1CCc2cc(-c3ccccc3-c3nnn[nH]3)ccc21 [Example 12, 3-((1S)-5-(2-(1H-tetrazol-5-yl)phenyl)-2,3-dihydro-1H-inden-1-yl)-2-ethyl-5-((S)-1-methoxy-2-methylpropyl)-7-methyl-3H-imidazo[4,5-b]pyridine] | 17 | 460 | 0.7 |
